Laboratory results as given in US7745619B2, “Vinca derivatives” (priority 2003, dated 2010).

What was measured:
HeLa S-3 cells = test: HeLa GI50 determination (SRB growth inhibition); format: cell-based, human; details: Homo sapiens, HeLa S3, 48 h, read-out: HeLa Cells GI50 (nM)
Method in brief: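 Cells plated at 2×10^4/well; day-0 plate TCA-fixed, test compounds added at 10-fold dilutions for 2 days. SRB staining, absorbance at 490 nm; GI = 100×(T−T0)/(C−T0), GI50 from growth inhibition vs. concentration plots.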

MCF-7 cells = test: MCF-7 GI50 determination (crystal violet growth inhibition); format: cell-based, human; details: Homo sapiens, MCF7, 96 h, read-out: MCF-7 Cells GI50 (nM)
Method in brief: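 MCF-7 cells seeded at 2×10^4 cells/well, grown 24 h drug-free, then exposed to 10-fold compound dilutions for 4 days. Glutaraldehyde-fixed cells stained with crystal violet, absorbance read at 570 nm; GI=100×(T/T0) against day-0 control OD, GI50 from growth inhibition versus concentration plots.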

HS 578T = test: NCI 60-cell line growth inhibition assay: HS 578T; format: cell-based; details: Homo sapiens, Hs-578T
MCF7 = test: NCI 60-cell line growth inhibition assay: MCF7; format: cell-based; details: Homo sapiens
MDA-MB-435 = test: NCI 60-cell line growth inhibition assay: MDA-MB-435; format: cell-based; details: Homo sapiens
NCI/ADR-RES = format: cell-based; details: Homo sapiens
SF-268 = test: NCI 60-cell line growth inhibition assay: SF-268; format: cell-based; details: Homo sapiens, CNS
Description: (§1) The following data in Table 4 summarize the growth inhibition properties of several compounds of the present invention against 60-human transformed cell lines.

SF-539 = test: NCI 60-cell line growth inhibition assay: SF-539; format: cell-based; details: Homo sapiens
SNB-19 = test: NCI 60-cell line growth inhibition assay: SNB-19; format: cell-based; details: Homo sapiens
COLO 205 = test: NCI 60-cell line growth inhibition assay: COLO 205; format: cell-based; details: Homo sapiens
HCC-2998 = test: NCI 60-cell line growth inhibition assay: HCC-2998; format: cell-based; details: Homo sapiens, HCC 2998
KM12 = test: NCI 60-cell line growth inhibition assay: KM12; format: cell-based; details: Homo sapiens
SW-620 = test: NCI 60-cell line growth inhibition assay: SW-620; format: cell-based; details: Homo sapiens
CCRF-CEM = test: NCI 60-cell line growth inhibition assay: CCRF-CEM; format: cell-based; details: Homo sapiens, Leukemia
Description: as §1

MOLT-4 = test: NCI 60-cell line growth inhibition assay: MOLT-4; format: cell-based; details: Homo sapiens
RPMI-8226 = test: NCI 60-cell line growth inhibition assay: RPMI-8226; format: cell-based, human
Description: as §1

LOX IMVI = test: NCI 60-cell line growth inhibition assay: LOX IMVI; format: cell-based; details: Homo sapiens
M14 = test: NCI 60-cell line growth inhibition assay: M14; format: cell-based; details: Homo sapiens
SK-MEL-5 = test: NCI 60-cell line growth inhibition assay: SK-MEL-5; format: cell-based; details: Homo sapiens
UACC-257 = test: NCI 60-cell line growth inhibition assay: UACC-257; format: cell-based; details: Homo sapiens
A549/ATCC = test: NCI 60-cell line growth inhibition assay: A549/ATCC; format: cell-based; details: Homo sapiens, A549
EKVX = test: NCI 60-cell line growth inhibition assay: EKVX; format: cell-based; details: Homo sapiens
HOP-62 = test: NCI 60-cell line growth inhibition assay: HOP-62; format: cell-based; details: Homo sapiens
NCI-H460 = format: cell-based; details: Homo sapiens
NCI-H522 = format: cell-based; details: Homo sapiens
IGROV1 = test: NCI 60-cell line growth inhibition assay: IGROV1; format: cell-based; details: Homo sapiens, IGROV-1, Ovarian
Description: as §1

OVCAR-3 = test: NCI 60-cell line growth inhibition assay: OVCAR-3; format: cell-based; details: Homo sapiens
OVCAR-8 = test: NCI 60-cell line growth inhibition assay: OVCAR-8; format: cell-based; details: Homo sapiens
DU-145 = test: NCI 60-cell line growth inhibition assay: DU-145; format: cell-based; details: Homo sapiens
PC-3 = test: NCI 60-cell line growth inhibition assay: PC-3; format: cell-based; details: Homo sapiens
786-0 = test: NCI 60-cell line growth inhibition assay: 786-0; format: cell-based; details: Homo sapiens
CAKI-1 = test: NCI 60-cell line growth inhibition assay: CAKI-1; format: cell-based; details: Homo sapiens
SN12C = test: NCI 60-cell line growth inhibition assay: SN12C; format: cell-based; details: Homo sapiens
TK-10 = test: NCI 60-cell line growth inhibition assay: TK-10; format: cell-based; details: Homo sapiens
[1] = Homo sapiens, Leukemia, RPMI-8226

Structure (SMILES) | GI50 (HeLa S-3 cells) [nM] | GI50 (MCF-7 cells) [nM] | GI50 (HS 578T) [µM] | GI50 (MCF7) [µM] | GI50 (MDA-MB-435) [µM] | GI50 (NCI/ADR-RES) [µM] | GI50 (SF-268) [µM] | GI50 (SF-539) [µM] | GI50 (SNB-19) [µM] | GI50 (COLO 205) [µM] | GI50 (HCC-2998) [µM] | GI50 (KM12) [µM] | GI50 (SW-620) [µM] | GI50 (CCRF-CEM) [µM] | GI50 (MOLT-4) [µM] | GI50 (RPMI-8226; [1]) [µM] | GI50 (LOX IMVI) [µM] | GI50 (M14) [µM] | GI50 (SK-MEL-5) [µM] | GI50 (UACC-257) [µM] | other results
CC[C@]1(O)C[C@H]2CN(CCc3c([nH]c4ccc(C#Cc5ccccc5)cc34)[C@@](C(=O)OC)(c3cc4c(cc3OC)N(C)[C@H]3[C@@](O)(C(=O)OC)[C@H](OC(C)=O)[C@]5(CC)C=CCN6CC[C@]43[C@@H]65)C2)C1 [Example 19, 12′-(2-phenylethynyl) vinblastine] | > 1000 | 800 | 1.85 | 0.396 | 0.0605 | 1.44 | 0.731 | 1.79 | 1.79 | 1.19 | 0.182 | 0.206 | 1.77 | 0.263 | 0.196 | 0.252 | > 100 | 0.26 | 0.757 | 46 | GI50 (A549/ATCC): 37.3 µM; GI50 (EKVX): 2.79 µM; GI50 (HOP-62): 0.571 µM; GI50 (NCI-H460): 0.353 µM; GI50 (NCI-H522): 1.81 µM; GI50 (IGROV1): 2.21 µM; GI50 (OVCAR-3): 0.207 µM; GI50 (OVCAR-8): 32.2 µM; GI50 (DU-145): 2.46 µM; GI50 (PC-3): 0.28 µM; GI50 (786-0): 0.889 µM; GI50 (CAKI-1): 0.557 µM; GI50 (SN12C): 2.47 µM; GI50 (TK-10): 0.313 µM
CCCC(=O)/C=C/c1ccc2[nH]c3c(c2c1)CCN1C[C@H](C[C@@](O)(CC)C1)C[C@]3(C(=O)OC)c1cc2c(cc1OC)N(C)[C@H]1[C@@](O)(C(=O)OC)[C@H](OC(C)=O)[C@]3(CC)C=CCN4CC[C@]21[C@@H]43 [Example 29, 12′-(3-oxohex-1-enyl)vinblastine] | 515 | 515 | 0.628 | 0.0105 | 0.0343 | 18.1 | 0.901 | 0.021 | < 0.01 | < 0.01 | < 0.01 | 0.212 | 1.3 | 0.0288 | 0.011 | 0.0141 | < 0.01 | < 0.01 | 0.42 | 19.3 | GI50 (A549/ATCC): 0.0287 µM; GI50 (EKVX): 10.8 µM; GI50 (HOP-62): < 0.01 µM; GI50 (NCI-H460): 0.176 µM; GI50 (NCI-H522): 0.0314 µM; GI50 (IGROV1): 1.71 µM; GI50 (OVCAR-3): 0.0597 µM; GI50 (OVCAR-8): 0.0226 µM; GI50 (DU-145): 0.0152 µM; GI50 (PC-3): 0.0442 µM; GI50 (786-0): < 0.01 µM; GI50 (CAKI-1): 1.2 µM; GI50 (SN12C): < 0.01 µM; GI50 (TK-10): 3.24 µM
CCC1=C[C@H]2CN(CCc3c([nH]c4ccc(Br)cc34)[C@@](C(=O)OC)(c3cc4c(cc3OC)N(C)[C@H]3[C@@](O)(C(=O)OC)[C@H](OC(C)=O)[C@]5(CC)C=CCN6CC[C@]43[C@@H]65)C2)C1 [Example 97, 12′-bromoanhydro vinblastine] | 30 | 50 | < 0.01 | < 0.01 | < 0.01 | 0.0779 | < 0.01 | < 0.01 | < 0.01 | < 0.01 | < 0.01 | < 0.01 | < 0.01 | < 0.01 | < 0.01 | < 0.01 | < 0.01 | < 0.01 | < 0.01 | 3.95 | GI50 (RPMI-8226; Renal, RPMI-8226 (last line of Table 4, repeats the Leukemia line)): < 0.01 µM; GI50 (A549/ATCC): < 0.01 µM; GI50 (EKVX): 10.2 µM; GI50 (HOP-62): < 0.01 µM; GI50 (NCI-H460): < 0.01 µM; GI50 (NCI-H522): < 0.01 µM; GI50 (IGROV1): < 0.01 µM; GI50 (OVCAR-3): < 0.01 µM; GI50 (OVCAR-8): < 0.01 µM; GI50 (DU-145): < 0.01 µM; GI50 (PC-3): < 0.01 µM; GI50 (786-0): < 0.01 µM; GI50 (CAKI-1): 0.589 µM; GI50 (SN12C): < 0.01 µM; GI50 (TK-10): < 0.01 µM
